These compounds were tested on 293T-HRE-GFP-luc cells (assay: Cell-based reporter assay for IC50 determinations (HRE-luciferase, hypoxia)). Details: 6 h, 6 hrs hypoxia (1% O2), luminescence.
Outline: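 293T-HRE-GFP-luc cells were pre-incubated with serially diluted compounds for 30 min under normoxia, then held 6 hrs in hypoxia (1% O2, 37° C). HRE-driven luciferase read by Steadylite Plus luminescence; IC50 from four-parameter logistic fit.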

Q: For `CN1CCN(c2cc(Cn3cc(-c4nnc(-c5ccc(OC(F)(F)F)cc5)o4)ccc3=O)ccn2)CC1` [Example 101, 1-Methyl-4-(4-((2-oxo-5-(5-(4-(trifluoromethoxy)phenyl)-1,3,4-oxadiazol-2-yl)pyridin-1(2H)-yl)methyl)pyridin-2-yl)piperazin-1-ium 2,2,2-trifluoroacetate], which IC50 is on record?
A: The IC50 was 100 to 1000 nM.

Q: With `COCCOc1cccc(Cn2cc(-c3nnc(-c4ccc(OC(F)(F)F)cc4)o3)ccc2=O)c1` [Example 102] as the compound, how does the IC50 read?
A: Its IC50 is under 100 nM.

Q: Which IC50 does the source give for `CC(C)(O)c1cccc(Cn2cc(-c3nnc(-c4ccc(OC(F)(F)F)cc4)o3)ccc2=O)c1` [Example 103] here?
A: The IC50 was under 100 nM.

Q: How did the IC50 turn out when `CS(=O)(=O)CCCOc1cccc(Cn2cc(-c3nnc(-c4ccc(OC(F)(F)F)cc4)o3)ccc2=O)c1` [Example 104] was run?
A: Its IC50 is under 100 nM.

Q: For `CS(=O)(=O)C1CCN(c2cccc(Cn3cc(-c4nnc(-c5ccc(OC(F)F)cc5)o4)ccc3=O)c2)CC1` [Example 105, 5-(5-(4-(Difluoromethoxy)phenyl)-1,3,4-oxadiazol-2-yl)-1-(3-(4-(methylsulfonyl)piperidin-1-yl)benzyl)pyridin-2(1H)-one], which IC50 is on record?
A: Its IC50 is under 100 nM.

Q: `CC(C)Oc1ccc(-c2nnc(-c3ccc(=O)n(Cc4cccc(N5CCC(S(C)(=O)=O)CC5)c4)n3)o2)cc1` [Example 106, 6-(5-(4-Isopropoxyphenyl)-1,3,4-oxadiazol-2-yl)-2-(3-(4-(methylsulfonyl)piperidin-1-yl)benzyl)pyridazin-3(2H)-one] was tested. Which IC50 did it give?
A: The IC50 was under 100 nM.

Q: How did the IC50 turn out when `COC(=O)c1cccc(Cn2cc(-c3nc(-c4ccc(OC(F)(F)F)cc4)no3)ccc2=O)c1` [Example 107, methyl 3-((2-oxo-5-(3-(4-(trifluoromethoxy)phenyl)-1,2,4-oxadiazol-5-yl)pyridin-1(2H)-yl)methyl)benzoate] was run?
A: Its IC50 is 100 to 1000 nM.

Q: For `O=c1ccc(-c2nc(-c3ccc(OC(F)(F)F)cc3)no2)nn1Cc1ccc(F)c(Br)c1` [Example 108, 2-(3-bromo-4-fluorobenzyl)-6-(3-(4-(trifluoromethoxy)phenyl)-1,2,4-oxadiazol-5-yl)pyridazin-3(2H)-one], which IC50 is on record?
A: The IC50 was 100 to 1000 nM.

Q: Which IC50 does the source give for `COC(=O)c1cccc(Cn2nc(-c3nc(-c4ccc(OC(F)(F)F)cc4)no3)ccc2=O)c1` [Example 109, methyl 3-((6-oxo-3-(3-(4-(trifluoromethoxy)phenyl)-1,2,4-oxadiazol-5-yl)pyridazin-1(6H)-yl)methyl)benzoate] here?
A: The IC50 was 100 to 1000 nM.

Q: `O=C(c1cccc(Cn2nc(-c3nc(-c4ccc(OC(F)(F)F)cc4)no3)ccc2=O)c1)N1CCOCC1` [Example 110, 2-(3-(morpholine-4-carbonyl)benzyl)-6-(3-(4-(trifluoromethoxy)phenyl)-1,2,4-oxadiazol-5-yl)pyridazin-3(2H)-one] was tested. Which IC50 did it give?
A: Its IC50 is 100 to 1000 nM.

Q: With `O=c1ccc(-c2nc(-c3ccc(OC(F)(F)F)cc3)no2)nn1Cc1ccc(F)c(N2CCOCC2)c1` [Example 111, 2-(4-fluoro-3-morpholinobenzyl)-6-(3-(4-(trifluoromethoxy)phenyl)-1,2,4-oxadiazol-5-yl)pyridazin-3(2H)-one] as the compound, how does the IC50 read?
A: Its IC50 is under 100 nM.

Q: `CN1CCN(C(=O)c2cccc(Cn3nc(-c4nc(-c5ccc(OC(F)(F)F)cc5)no4)ccc3=O)c2)CC1` [Example 112, 2-(3-(4-methylpiperazine-1-carbonyl)benzyl)-6-(3-(4-(trifluoromethoxy)phenyl)-1,2,4-oxadiazol-5-yl)pyridazin-3(2H)-one] was tested. Which IC50 did it give?
A: Its IC50 is 100 to 1000 nM.

Q: With `CN1CCN(c2cc(Cn3nc(-c4nc(-c5ccc(OC(F)(F)F)cc5)no4)ccc3=O)ccc2F)CC1` [Example 113, 2-(4-fluoro-3-(4-methylpiperazin-1-yl)benzyl)-6-(3-(4-(trifluoromethoxy)phenyl)-1,2,4-oxadiazol-5-yl)pyridazin-3(2H)-one] as the compound, how does the IC50 read?
A: Its IC50 is under 100 nM.

Q: With `O=C(c1cccc(Cn2cc(-c3nc(-c4ccc(OC(F)(F)F)cc4)no3)ccc2=O)c1)N1CCOCC1` [Example 114, 1-(3-(morpholine-4-carbonyl)benzyl)-5-(3-(4-(trifluoromethoxy)phenyl)-1,2,4-oxadiazol-5-yl)pyridin-2(1H)-one] as the compound, how does the IC50 read?
A: The IC50 was under 100 nM.

Q: How did the IC50 turn out when `CN1CCN(C(=O)c2cccc(Cn3cc(-c4nc(-c5ccc(OC(F)(F)F)cc5)no4)ccc3=O)c2)CC1` [Example 115, 1-(3-(4-methylpiperazine-1-carbonyl)benzyl)-5-(3-(4-(trifluoromethoxy)phenyl)-1,2,4-oxadiazol-5-yl)pyridin-2(1H)-one] was run?
A: Its IC50 is under 100 nM.

Q: Which IC50 does the source give for `CN1CCN(c2cccc(Cn3cc(-c4nc(-c5ccc(OC(F)(F)F)cc5)no4)ccc3=O)c2)CC1` [Example 116, 1-(3-(4-methylpiperazin-1-yl)benzyl)-5-(3-(4-(trifluoromethoxy)phenyl)-1,2,4-oxadiazol-5-yl)pyridin-2(1H)-one] here?
A: Its IC50 is under 100 nM.

Q: With `COC(=O)c1cc(Cn2nc(-c3nc(-c4ccc(OC(F)(F)F)cc4)no3)ccc2=O)ccn1` [Example 117, methyl 4-((6-oxo-3-(3-(4-(trifluoromethoxy)phenyl)-1,2,4-oxadiazol-5-yl)pyridazin-1(6H)-yl)methyl)picolinate] as the compound, how does the IC50 read?
A: Its IC50 is 1000 to 10000 nM.

Q: With `CS(=O)(=O)c1cccc(Cn2nc(-c3nc(-c4ccc(OC(F)(F)F)cc4)no3)ccc2=O)c1` [Example 118, 2-(3-(methylsulfonyl)benzyl)-6-(3-(4-(trifluoromethoxy)phenyl)-1,2,4-oxadiazol-5-yl)pyridazin-3(2H)-one] as the compound, how does the IC50 read?
A: Its IC50 is under 100 nM.

Q: `NS(=O)(=O)c1cccc(Cn2nc(-c3nc(-c4ccc(OC(F)(F)F)cc4)no3)ccc2=O)c1` [Example 119] was tested. Which IC50 did it give?
A: The IC50 was under 100 nM.

Q: For `N#Cc1cccc(Cn2nc(-c3nc(-c4ccc(OC(F)(F)F)cc4)no3)ccc2=O)c1` [Example 120, 3-((6-oxo-3-(3-(4-(trifluoromethoxy)phenyl)-1,2,4-oxadiazol-5-yl)pyridazin-1(6H)-yl)methyl)benzonitrile], which IC50 is on record?
A: Its IC50 is under 100 nM.

Q: `COc1cccc(Cn2cc(-c3nc(-c4ccc(OC(F)(F)F)cc4)no3)ccc2=O)c1` [Example 121, 1-(3-methoxybenzyl)-5-(3-(4-(trifluoromethoxy)phenyl)-1,2,4-oxadiazol-5-yl)pyridin-2(1H)-one] was tested. Which IC50 did it give?
A: Its IC50 is under 100 nM.

Q: With `N#Cc1cccc(Cn2cc(-c3nc(-c4ccc(OC(F)(F)F)cc4)no3)ccc2=O)c1` [Example 122, 3-((2-oxo-5-(3-(4-(trifluoromethoxy)phenyl)-1,2,4-oxadiazol-5-yl)pyridin-1(2H)-yl)methyl)benzonitrile] as the compound, how does the IC50 read?
A: The IC50 was under 100 nM.

Q: Which IC50 does the source give for `CS(=O)(=O)c1cccc(Cn2cc(-c3nc(-c4ccc(OC(F)(F)F)cc4)no3)ccc2=O)c1` [Example 123, 1-(3-(methylsulfonyl)benzyl)-5-(3-(4-(trifluoromethoxy)phenyl)-1,2,4-oxadiazol-5-yl)pyridin-2(1H)-one] here?
A: Its IC50 is under 100 nM.

Q: Which IC50 does the source give for `NS(=O)(=O)c1cccc(Cn2cc(-c3nc(-c4ccc(OC(F)(F)F)cc4)no3)ccc2=O)c1` [Example 124, 3-((2-oxo-5-(3-(4-(trifluoromethoxy)phenyl)-1,2,4-oxadiazol-5-yl)pyridin-1(2H)-yl)methyl)benzenesulfonamide] here?
A: The IC50 was under 100 nM.

Q: How did the IC50 turn out when `CN1CCN(C(=O)c2cc(Cn3nc(-c4nc(-c5ccc(OC(F)(F)F)cc5)no4)ccc3=O)ccn2)CC1` [Example 125, 2-((2-(4-methylpiperazine-1-carbonyl)pyridin-4-yl)methyl)-6-(3-(4-(trifluoromethoxy)phenyl)-1,2,4-oxadiazol-5-yl)pyridazin-3(2H)-one] was run?
A: The IC50 was 1000 to 10000 nM.

Q: For `COC(=O)c1cc(Cn2nc(-c3nc(-c4ccc(OC(F)(F)F)cc4)no3)ccc2=O)ccc1F` [Example 126, methyl 2-fluoro-5-((6-oxo-3-(3-(4-(trifluoromethoxy)phenyl)-1,2,4-oxadiazol-5-yl)pyridazin-1(6H)-yl)methyl)benzoate], which IC50 is on record?
A: The IC50 was under 100 nM.

Q: `O=c1c(-c2nc(-c3ccc(OC(F)(F)F)cc3)no2)cccn1Cc1ccnc(N2CCOCC2)c1` [Example 127, 1-((2-morpholinopyridin-4-yl)methyl)-3-(3-(4-(trifluoromethoxy)phenyl)-1,2,4-oxadiazol-5-yl)pyridin-2(1H)-one] was tested. Which IC50 did it give?
A: The IC50 was 100 to 1000 nM.

Q: With `Cc1ccc(-c2nc(-c3ccc(OC(F)(F)F)cc3)no2)c(=O)n1Cc1cccc(C(=O)N(C)C)c1` [Example 128, N,N-dimethyl-3-((6-methyl-2-oxo-3-(3-(4-(trifluoromethoxy)phenyl)-1,2,4-oxadiazol-5-yl)pyridin-1(2H)-yl)methyl)benzamide] as the compound, how does the IC50 read?
A: The IC50 was 100 to 1000 nM.

Q: How did the IC50 turn out when `O=C(c1cc(Cn2nc(-c3nc(-c4ccc(OC(F)(F)F)cc4)no3)ccc2=O)ccc1F)N1CCOCC1` [Example 129, 2-{[4-fluoro-3-(morpholine-4-carbonyl)phenyl]methyl}-6-{3-[4-(trifluoromethoxy)phenyl]-1,2,4-oxadiazol-5-yl}-2,3-dihydropyridazin-3-one] was run?
A: The IC50 was 100 to 1000 nM.

Q: Which IC50 does the source give for `CN1CCN(C(=O)c2cc(Cn3nc(-c4nc(-c5ccc(OC(F)(F)F)cc5)no4)ccc3=O)ccc2F)CC1` [Example 130, 2-{[4-fluoro-3-(4-methylpiperazine-1-carbonyl)phenyl]methyl}-6-{3-[4-(trifluoromethoxy)phenyl]-1,2,4-oxadiazol-5-yl}-2,3-dihydropyridazin-3-one] here?
A: Its IC50 is 100 to 1000 nM.

Q: How did the IC50 turn out when `CNC(=O)c1cccc(Cn2nc(-c3nc(-c4ccc(OC(F)(F)F)cc4)no3)ccc2=O)c1` [Example 131, N-methyl-3-[(6-oxo-3-{3-[4-(trifluoromethoxy)phenyl]-1 2 4-oxadiazol-5-yl}-1 6-dihydropyridazin-1-yl)methyl]benzamide] was run?
A: Its IC50 is under 100 nM.

Q: Which IC50 does the source give for `NC(=O)c1cccc(Cn2nc(-c3nc(-c4ccc(OC(F)(F)F)cc4)no3)ccc2=O)c1` [Example 132, 3-[(6-oxo-3-{3-[4-(trifluoromethoxy)phenyl]-1,2,4-oxadiazol-5-yl}-1,6-dihydropyridazin-1-yl)methyl]benzamide] here?
A: The IC50 was under 100 nM.

Q: How did the IC50 turn out when `CNC(=O)c1cccc(Cn2cc(-c3nc(-c4ccc(OC(F)(F)F)cc4)no3)ccc2=O)c1` [Example 133, N-methyl-3-[(2-oxo-5-{3-[4-(trifluoromethoxy)phenyl]-1,2,4-oxadiazol-5-yl}-1,2-dihydropyridin-1-yl)methyl]benzamide] was run?
A: Its IC50 is under 100 nM.

Q: For `CN(C)C(=O)c1cccc(Cn2cc(-c3nc(-c4ccc(OC(F)(F)F)cc4)no3)ccc2=O)c1` [Example 134, N,N-dimethyl-3-[(2-oxo-5-{3-[4-(trifluoromethoxy)phenyl]-1,2,4-oxadiazol-5-yl}-1,2-dihydropyridin-1-yl)methyl]benzamide], which IC50 is on record?
A: The IC50 was under 100 nM.
